Measured values taken from US5334707A, “Use of acyl phosphate esters in the modification of hemoglobin” (priority 1992, dated 1994).
Entries after “also recorded” stand apart in the source; their conditions may differ.

Experiments:
[1] = Solution stability (hydrolysis followed by 31P NMR) of bis(methyl acyl phosphates) in tris-HCl buffer; assay type: physicochemical; conditions: 0.100M tris-HCl buffer, pH 7.4, 37° C.; for half-life: 0.1 m tris-hcl buffer, 31P NMR
Protocol: The solution stability of the bis(methyl acyl phosphates) was examined. The hydrolysis of fumaryl bis(sodium methyl phosphate), stilbene 3,3'dicarboxylic acid bis(sodium methyl phosphate) and stilbene 4,4'dicarboxylic acid bis(sodium methyl phosphate) in 0.100M tris-HCL buffer, pH 7.4, 37° C., were followed by integrating signals for the reactant and the phosphorus-containing product, methyl phosphate, in the ^31 P NMR spectrum. Production of methyl phosphate was observed as an indication of hydrolysis or of acylation of the buffer. […] The half life of the 3,3'stilbene derivative, was 100 hours. […] This is in agreement with earlier reports of the reactivity of acyl phosphate esters (Disabato, G.; Jencks, W. P., J. Am. Chem. Soc. 1961, 83, 4393, 4400).

human hemoglobin [2] = assay: Inter-subunit cross-linking of hemoglobin by SDS-polyacrylamide gel electrophoresis; assay type: biochemical; conditions: 0.3 mM hemoglobin, pH 7.4, 37° C., four hours
Protocol: Solutions (2 mL) of 4,4'stilbene dicarboxylic acid bis(methyl phosphate) at concentrations of 0.3 mM, 3.0 mM, 30 mM, and 300 mM were prepared in 0.100M tris-HCL buffer pH 7.4. A control solution containing only the buffer was prepared. To each of these freshly prepared solutions, 40 mg of human hemoglobin (Sigma Chemical Company) was added so that the resulting solution was 0.3 mM in hemoglobin. The reaction mixtures were than stirred vigorously and incubated at 37° C. After four hours the solutions were dialyzed against 0.100M sodium phosphate buffer, pH 7.0, for 20 hours at 4° C. to remove the unreacted acyl phosphates. The samples were then lyophilized and analyzed by SDS-polyacrylamide gel electrophoresis to assess the extent of intersubunit cross-linking (Weber, K; Osborn, M.; J. Biol. Chem. 1969, 244, 4406). Prior to electrophoresis, the hemoglobin samples, cross-linked bovine hemoglobin standard (Sigma Dalton Mark VII-L doubly crystallized, dialyzed, lyophilized), and molecular weight standards were denatured by boiling for 15 min. in 0.11M sodium phosphate buffer, pH 7.0, which contained 1% sodium dodecyl sulfate, 1% 2-mercaptoethanol, 36% urea, and 0.015% bromphenol blue. The final protein concentrations were 2 mg/mL and 10 to 20 μL aliquots were loaded on the gel. The process was conducted using a Bio-Rad Mini-Protean II dual slab cell apparatus. The extent of cross-linking of the hemoglobin could be estimated by visual comparison of the resolved electrophoretic bands after fixation followed by staining with Coomassie Brilliant Blue R.
The above procedure was repeated with solutions of fumaryl bis(methyl phosphate) at concentrations of 0.3 mM, 3.0 mM and 30 mM; 3,3'stilbene dicarboxylic acid bis(methyl phosphate) at a concentration of 30 mM and methyl acetyl phosphate at a concentration of 0.6M.

[3] = biological target: carbonmonoxyhemoglobin (COHb) (Homo sapiens, UniProt P68871+P69905); assay: Reaction of FMP with carbonmonoxyhemoglobin, conversion by anion exchange chromatography; assay type: biochemical
Protocol: The effect of pH, type of buffer, and ligand state of the cross-linked hemoglobin was examined for the reaction of fumaryl bis(methyl phosphate) (FMP) with hemoglobin.
ethanesulphonic acid]at pH 7.5, 35°, for 2 hours. Over the range of pH from 6.8 to 7.5, the greatest reaction between COHb and FMP was obtained at the pH of 7.2 in bisTris. The reaction at pH 7.2, . […] A second peak of reacted material observed by anion exchange chromatography increased over 3 hours from 14% at 10 minutes to about 30% by 3 hours.

human hemoglobin [4] = assay: Cross-linking site of the reaction with hemoglobin; assay type: biochemical
Excerpt: Structural characterization of the major and some minor modified hemoglobins that result form reacting deoxyHb and COHb with FMP were made by isolating single hemoglobin components wherever possible. The initial separation was made on a preparative size Synchropak AX300 anion exchange column. Further purification was obtained by rechromatography of anion exchange zones containing mixtures of hemoglobins on a preparative size Synchropak CM300 cation exchange column. Zones from cation exchange rechromatography were then subjected to globin chain separation using Vydak C-4 large pore reverse phase columns. In some cases, this was sufficient for identification of the unmodified globin chains. In most cases the globin chain was isolated, treated by oxidations or aminoethylation to stabilize the zysteinyl residues, hydrolyzed with trypsin and glu-C proteonase and the resultant peptides were separated and analyzed for amino acid composition. Table II lists the components isolated and the structural modifications identified for the FMP treated hemoglobin.
The number, chromatographic elution positions, and amounts of products of hemoglobin reacted with FMP varies with the ligand state of the hemoglobin and with the presence or absence of 2,3-DPG (2,3, diphosphoglycerate). FIG. 1 is an artion exchange HPLC chromatogram of the reaction mixture after treatment of deoxyhemoglobin with FMP. […]

Sequence of carbonmonoxyhemoglobin (COHb) (P69905 2-142 limits assumed): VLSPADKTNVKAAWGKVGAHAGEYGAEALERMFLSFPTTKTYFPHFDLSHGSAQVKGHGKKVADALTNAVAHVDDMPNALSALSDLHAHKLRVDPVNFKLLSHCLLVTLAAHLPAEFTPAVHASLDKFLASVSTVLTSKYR
Sequence of carbonmonoxyhemoglobin (COHb) (P68871 2-147 limits assumed): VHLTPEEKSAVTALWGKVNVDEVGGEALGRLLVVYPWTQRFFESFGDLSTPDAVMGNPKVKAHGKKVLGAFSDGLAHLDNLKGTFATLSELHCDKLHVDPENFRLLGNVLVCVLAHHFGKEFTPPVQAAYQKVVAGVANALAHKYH

## COP(=O)(O)OC(=O)c1cccc(/C=C/c2cccc(C(=O)OP(=O)(O)OC)c2)c1 [Stilbene 3,3'-dicarboxylic acid bis(sodiummethyl phosphate)]
[1]
  half-life: 100 h
Human hemoglobin [2]
  species produced by reaction with hemoglobin (SDS gel electrophoresis): dimeric and tetrameric species

## COP(=O)(O)OC(=O)c1ccc(/C=C/c2ccc(C(=O)OP(=O)(O)OC)cc2)cc1 [Stilbene 4,4'-dicarboxylic acid bis(sodiummethyl phosphate)]
[1]; followed for nine hours
  change observed in the 31P NMR spectrum: no change observed in the spectrum
Human hemoglobin [2]
  species produced by reaction with hemoglobin (SDS gel electrophoresis): dimeric and tetrameric species

## COP(=O)(O)OC(=O)/C=C/C(=O)OP(=O)(O)OC [fumaryl bis(methyl phosphate), Fumaryl bis(sodium methyl phosphate)]
[1]
  half-life: 36 h
[3]; 1 mM COHb, 2 mM FMP, pH 7.2, 35°, 2 hours
  conversion of the hemoglobin to fumaryl derivatives: about 75%
[3]; 1 mM COHb, 2 mM FMP, pH 7.2, 35°, at 10 minutes
  second peak of reacted material: 14%
[3]; 1 mM COHb, 2 mM FMP, pH 7.2, 35°, by 10 minutes
  major modified component, percent of total hemoglobin: approximately 35%
[3]; 1 mM COHb, 2 mM FMP, pH 7.2, 35°, by 3 hours
  second peak of reacted material: about 30%
[3]; COHb, bisTris compared to HEPES, pH 7.5, 35°, 2 hours
  effect of buffer on amounts or varieties of reaction products: No significant differences
[3]; pH range 6.8 to 7.5, bisTris
  pH of greatest reaction between COHb and FMP: 7.2
Human hemoglobin [4]; absence of 2,3-diphosphoglycerate
  cross-links formed in hemoglobin: cross-linked between β subunits (val-1 to lys-82) and between the same residues in a single β subunit as well as a cross-link between α subunits between lys-99 in each subunit; also recorded: cross-linked between β subunits (val-1 to lys-82) and between the same residues in a single β subunit as well as crosslinked between α subunits between lys-99 in each subunit
Human hemoglobin [4]; human hemoglobin
  cross-linking site of reaction: the highly cationic site which binds 2,3-diphosphoglycerate
Human hemoglobin [2]
  species produced by reaction with hemoglobin (SDS gel electrophoresis): dimeric and tetrameric species

## O=C(O)c1cccc(C=Cc2cccc(C(=O)O)c2)c1 [stilbene 3,3'-dicarboxylic acid, Stilbene 3,3'-dicarboxylic acid, reference compound]
Human hemoglobin [2]
  species produced by reaction with hemoglobin (SDS gel electrophoresis): monomeric
